Row | SMILES | melting point [°C]
1 | CCOC(=O)COc1ccc(C(=O)Nc2ccccc2Oc2ccccc2-c2nnn[nH]2)cc1 | 162 to 163
2 | CC1(C)N=C(Cl)c2cc(C#N)ccc2O1 | 124 to 126
3 | CCc1cc2c(Cl)cc(F)c(-n3c(=O)cc(C(F)(F)F)n(N)c3=O)c2o1 | 145 to 147
4 | COC(=O)/C=C/c1nc(C=O)ccc1OC | 132 to 134
5 | COC(=O)C1=C(N)CCC(C#N)(c2ccc(OC)c(OCC3CC3)c2)C1 (stereo not drawn) | 164 to 165
6 | COc1cc2c3c(c1OC)CCc1ccccc1C3CNC2 (stereo not drawn) | > 250
7 | CCCCCCCCC#CCC#CCC#CCS(=O)(=O)CC(=O)NCC | 83
8 | Nc1nc(N2CCCC2)c2nc[nH]c2n1 | 265
9 | COc1ccc(S(=O)(=O)Nc2cccnc2Nc2ccc(Oc3ccccc3)cc2)cc1 | 174 to 176
10 | CC(=O)OCc1cc2cc(-c3ccc(OC(F)(F)F)cc3)ccc2n1Cc1ccc(C)cc1 | 125 to 126
11 | CSc1nncc(-c2ccccc2)n1 | 99 to 100
12 | CCCN(CCC)C1Cc2cccc3c2N(C1)C(=O)C3 (stereo not drawn) | 86 to 88
13 | COc1cc(C(=O)O)ccc1Cc1cn(C)c2ccc(C(=O)N(C)CC3CCCC3)cc12 | 112 to 114
14 | COCCOc1cc2ncnc(NC3=CC(=O)C(N(C)C4CCCCC4)=CC3=O)c2cc1OC | 178 to 180
15 | Cc1nc(-n2cc(C(=O)NCc3ccc(F)cc3)nn2)sc1C(=O)NCc1ccccc1 | 198 to 201
16 | N#CC1(Cl)C=C(OCc2ccccc2)C=NC1 (stereo not drawn) | 114 to 115
17 | Cc1cccc(Nc2cc(Nc3ccc(OCC(=O)N(C)C)cc3)ncn2)c1 | 135 to 138
18 | O=C(CCc1cccnc1)c1c(O)c2cccnc2n(-c2ccccc2)c1=O | 219 to 220
19 | Cc1c(Cl)c(N)cc(Cl)c1Oc1ccc(Cl)cc1Cl | 96 to 97
20 | NS(=O)(=O)c1ccc2c(c1)C(O)CCC2 (stereo not drawn) | 137 to 138
21 | CCOCCc1cc2c(nc(O)n2CCCCS(C)(=O)=O)c(N)n1 | 203 to 206
22 | COC(=O)C(=CC=Cc1cc([N+](=O)[O-])ccc1Cl)C(=O)OC | 167 to 168
23 | CN1CCN(CC(=O)NC2(c3ccc(Cl)cc3)C(=O)Nc3cc(Cl)cc(Cl)c32)CC1 (stereo not drawn) | 248 to 251
24 | COC(=O)N1C(=O)NC(C)=C(C(=O)OC(C)C)C1c1cccc(Cl)c1Cl (stereo not drawn) | 208 to 210
25 | CCCN1N=C2C(=Cc3ccc(OC)cc3)CS(=O)(=O)CC2C1c1ccc(OC)cc1 (stereo not drawn) | 195 to 198

Row | SMILES | melting point [°C]
26 | CCCCCCCCCCOc1ccc(C(=O)O)o1 | 124 to 126
27 | O=C(Nc1c(OCc2ccccc2)cc(Br)cc1[N+](=O)[O-])C(F)(F)F | 146 to 147
28 | COc1cc2c(c3c1OC(C)(C)C3)C(c1cccc(-c3ccc(N)cc3)c1)=NCC2(C)C | 232 to 234
29 | O=C(O)c1ccc(Oc2nccs2)c(F)c1 | 133 to 134
30 | O=C1Nc2cc(Cl)ccc2/C1=C\c1cccc(C(F)(F)F)c1 | 157 to 160
31 | N#CC(=C1C=CC(=NOC(=O)C(Cl)(Cl)Cl)C=C1)c1ccccc1 | 147 to 148
32 | COc1cc2[nH]cc(C3CN4CCC3CC4)c2cc1OC (stereo not drawn) | 243 to 245
33 | Cc1cc2c(cc1-c1ccc(C#CC(=O)O)s1)C(C)(C)CCC2(C)C | 138 to 140
34 | CCOC(=O)c1cn(-c2ccccc2)c2occc2c1=O | 168 to 170
35 | Cc1noc(NS(=O)(=O)c2ccc(-c3ccccc3)s2)c1Br | 132
36 | O=C(c1ccc(-c2ccc(Cl)cc2)cc1)N1CCCc2cc(C=CCN3CCCCC3)ccc21 | 141 to 143
37 | Cn1cc(-c2cc(-c3ccc4[nH]ccc4c3)ccn2)n(-c2ccc(C(C)(C)C#N)cc2)c1=O | 238
38 | CC(=O)OC1C(N2CCCC2=O)c2sccc2OC1(C)C (stereo not drawn) | 92 to 93
39 | C#C[C@](C)(O)CCc1c(C)c(OC(C)=O)c(C)c(C)c1OC(C)=O | 96 to 102
40 | CCOC(=O)C(CCc1ccccc1)NC1CSC(c2cccs2)CN(CC(=O)O)C1=O (stereo not drawn) | 168
41 | CCCCCCCCOC(=O)COc1cc(F)ccc1C(=S)NCc1cccc([N+](=O)[O-])c1 | 69 to 72
42 | Cn1cccc1C(=O)C(C#N)C(=O)Nc1ccc(O)cc1 (stereo not drawn) | 182 to 184
43 | CC(C)n1nc(-c2c(-c3ccccc3)nc(N)nc2N2CCOCC2)ccc1=O | 251 to 253
44 | C=Cc1cc(-c2cccnc2)no1 | 60 to 64
45 | CCOc1cccc(CC(=O)O)c1OCCn1cc(C(=O)NCc2ccc(Cl)cc2Cl)c(OCC)n1 | 145 to 146
46 | CC(C)(C)c1ccc(C2(Cl)CN(C(c3ccccc3)c3ccccc3)C2)cc1 | 145
47 | Oc1ccc(OCc2ccccc2)cc1OCc1ccccc1 | 82 to 83
48 | Clc1ccc(OCOCOc2ccc(Cl)cc2)cc1 | 53.5 to 54
49 | C#CCOc1cc(C(=O)O)cc(Cl)c1OCC#C | 158 to 159
50 | COc1ccc(-c2nc3n(c2-c2ccc(OC)cc2)CCC3)cc1 | 146 to 148

Row | SMILES | melting point [°C]
51 | COC(=O)c1cc(Nc2ccc(C)cc2)c(Nc2ccc(C)cc2)cc1C(=O)OC | 170 to 172
52 | CCOc1cccc(-n2cnc(-c3nc(CC)no3)c2)c1 | 120 to 121
53 | COC(=O)c1c(C(C)C)nc2c(c1-c1ccc(F)cc1)CCC(=O)N2 | 191
54 | Cc1oc(-c2ccccc2)nc1COc1cccc(CON)c1 | 81 to 82
55 | N#Cc1ccc2cc(CCCCc3cc4ccc(C#N)cc4o3)oc2c1 | 215 to 217
56 | COc1ccccc1-c1ccc2cnc(Nc3ccc(=O)[nH]c3)nn12 | 205 to 207
57 | C=C(c1cc(C(C)(C)C)cc2c1CCC2(C)C)c1sccc1C=O | 148 to 150
58 | CCCOc1c(OCc2ccccc2)cc(C2CCC(c3cc(OC)c(OC)c(OC)c3)O2)cc1S(=O)(=O)CC(C)O (stereo not drawn) | 103 to 110
59 | CCOC(=O)Cc1c(C)nc(-c2ccccc2)nc1-c1cccc([N+](=O)[O-])c1 | 106 to 108
60 | CC1=Nc2c3c(C)cnc-3ccn2C1 | 211
61 | COc1cc2c(c(Cl)c1Cl)CCC2=O | 163 to 165
62 | O=C(O)c1ccc(NC(=O)C(F)(F)F)nc1 | > 255
63 | CC=CC(=O)Nc1n[nH]c2cc(Cl)ccc12 | 226
64 | CCCCOc1ccc(-c2nc(-c3ccccc3Cl)nn2C)c(Cl)c1 | 60 to 62
65 | C[C@@H](Oc1cncc(C(=O)Nc2ccc(C#N)cc2)c1)c1ccc(F)cc1 | 151 to 152
66 | O=C(O)Cc1c(Cl)nc(-c2ccc([N+](=O)[O-])cc2)n1Cc1ccccc1 | 180 to 183
67 | CCCNC(=O)C=C1SC(Nc2c(Cl)cccc2Cl)=NC1=O | > 230
68 | COC(=O)C(C)(C)NC(=O)Nc1ccc(Cl)c(C(F)(F)F)c1 | 141 to 142
69 | COc1ccc(C2SCCCS2)cc1OC | 99 to 101
70 | COC(=O)Cc1ccc(OCCNC(=O)C2Cc3ccccc3N2S(=O)(=O)c2ccc(-c3cc(C(F)(F)F)ccc3Cl)cc2)cc1 (stereo not drawn) | 60
71 | O=C(O)Cc1ccc(CC2CCCCC2=NO)cc1 (stereo not drawn) | 180 to 184
72 | Cc1cccc2c1Cc1ccccc1OC(C(=O)O)O2 (stereo not drawn) | 61
73 | CC(=O)C1Cc2ccc(O)c(O)c2C1=O (stereo not drawn) | 159 to 160
